From ChEMBL document CHEMBL1949543, “Synthesis and evaluation of novel monosubstituted sulfonylurea derivatives as antituberculosis agents” (Eur J Med Chem, 2012)
Converted amounts (≈) assume the structure as drawn.

Tests used:
[1] = test system: Mycobacterium tuberculosis; test: Antituberculosis activity against Mycobacterium tuberculosis H37Rv ATCC 27294; assay type: functional
THP-1 = test: Cytotoxicity against human THP1 cells after 72 hrs by MTT assay; assay type: cell-based; conditions: THP-1, 72 h
[2] = Selectivity ratio of IC50 for human THP1 cells to MIC for Mycobacterium tuberculosis H37Rv ATCC 27294; assay type: functional, THP-1
[3] = test system: Mycobacterium tuberculosis; test: Antituberculosis activity against Mycobacterium tuberculosis isolate A; assay type: functional
Mycobacterium kansasii = test: Antituberculosis activity against Mycobacterium kansasii ATCC 12478; assay type: functional
[4] = Selectivity ratio of IC50 for human THP1 cells to MIC for Mycobacterium tuberculosis isolate A; assay type: functional, THP-1
Mycobacterium avium = test: Antituberculosis activity against Mycobacterium avium ATCC 25291; assay type: functional, Mycobacterium avium subsp. avium ATCC 25291

SMILES | MIC [1] [µg/mL] | other results
COc1ccnc(NC(=O)NS(=O)(=O)c2cc(NC(=O)C(C)C)ccc2Cl)n1 | > 100 | 
COc1ccnc(NC(=O)NS(=O)(=O)c2cc(NC(=O)COC(C)=O)ccc2Cl)n1 | > 100 | 
C=CC(=O)Nc1ccc(Cl)c(S(=O)(=O)NC(=O)Nc2nccc(OC)n2)c1 | 40 (≈ 97.1 µM) | 
Cc1ccnc(NC(=O)NS(=O)(=O)c2cc(NC(=O)C(C)C)ccc2Cl)n1 | > 100 | 
COc1ccnc(NC(=O)NS(=O)(=O)c2cc(NC(=O)CCl)ccc2Cl)n1 | 10 (≈ 23 µM) | IC50 (THP-1): 180 µg/mL (≈ 414 µM); Selectivity ratio [2]: 10; MIC [3]: 10 µg/mL (≈ 23 µM); MIC (Mycobacterium kansasii): 20 µg/mL (≈ 46.1 µM); Selectivity ratio [4]: 10; MIC (Mycobacterium avium): > 100 µg/mL
Cc1ccnc(NC(=O)NS(=O)(=O)c2cc(NC=O)ccc2Cl)n1 | > 100 | 
Cc1ccnc(NC(=O)NS(=O)(=O)c2cc(NC(=O)C(C)Cl)ccc2Cl)n1 (stereo not drawn) | > 100 | 
COc1ccnc(NC(=O)NS(=O)(=O)c2cc(NC(=O)C(F)(F)C(F)(F)C(F)(F)F)ccc2Cl)n1 | > 100 | 
CC(=O)OCC(=O)Nc1ccc(Cl)c(S(=O)(=O)NC(=O)Nc2nccc(C)n2)c1 | > 100 | 
Cc1ccnc(NC(=O)NS(=O)(=O)c2cc(NC(=O)c3ccccc3)ccc2Cl)n1 | 100 (≈ 224 µM) | 
COc1ccnc(NC(=O)NS(=O)(=O)c2cc(NC(=O)C(C)(C)C)ccc2Cl)n1 | > 100 | 
COc1ccnc(NC(=O)NS(=O)(=O)c2cc(NC(=O)C(C)Cl)ccc2Cl)n1 (stereo not drawn) | > 100 | 
C=CC(=O)Nc1ccc(Cl)c(S(=O)(=O)NC(=O)Nc2nccc(C)n2)c1 | 20 (≈ 50.5 µM) | 
Cc1ccnc(NC(=O)NS(=O)(=O)c2cc(NC(=O)C(F)(F)F)ccc2Cl)n1 | > 100 | 
COc1ccnc(NC(=O)NS(=O)(=O)c2cc(NC(=O)C3CC3)ccc2Cl)n1 | > 100 | 
COc1ccnc(NC(=O)NS(=O)(=O)c2cc(NC(=O)C(F)(F)F)ccc2Cl)n1 | > 100 | 
Cc1ccnc(NC(=O)NS(=O)(=O)c2cc(NC(=O)C(F)(F)C(F)(F)C(F)(F)F)ccc2Cl)n1 | > 100 | 
COC(=O)c1ccccc1S(=O)(=O)NC(=O)Nc1nc(C)cc(C)n1 [SULFOMETURON METHYL] | 10 (≈ 27.4 µM) | 
Cc1ccnc(NC(=O)NS(=O)(=O)c2cc(NC(=O)C3CC3)ccc2Cl)n1 | > 100 | 
CCOC(=O)C(=O)Nc1ccc(Cl)c(S(=O)(=O)NC(=O)Nc2nccc(C)n2)c1 | > 100 | 
COc1ccnc(NC(=O)NS(=O)(=O)c2cc(NC=O)ccc2Cl)n1 | > 100 | 
Cc1ccnc(NC(=O)NS(=O)(=O)c2cc(NC(=O)CCl)ccc2Cl)n1 | 10 (≈ 23.9 µM) | IC50 (THP-1): 138 µg/mL (≈ 330 µM); Selectivity ratio [2]: 10; MIC [3]: 10 µg/mL (≈ 23.9 µM); MIC (Mycobacterium kansasii): 20 µg/mL (≈ 47.8 µM); Selectivity ratio [4]: 10; MIC (Mycobacterium avium): > 100 µg/mL
Cc1ccnc(NC(=O)NS(=O)(=O)c2cc(NC(=O)C(C)(C)C)ccc2Cl)n1 | > 100 | 
COc1ccnc(NC(=O)NS(=O)(=O)c2cc(NC(C)=O)ccc2Cl)n1 | > 100 | 
CCOC(=O)C(=O)Nc1ccc(Cl)c(S(=O)(=O)NC(=O)Nc2nccc(OC)n2)c1 | > 100 | 
CC(=O)Nc1ccc(Cl)c(S(=O)(=O)NC(=O)Nc2nccc(C)n2)c1 | > 100 | 
